Read-outs that look alike come from different tables or passages of the source.
Tests used:
barnyardgrass [1] = assay: Test B pre-/postemergence herbicide test; type: in vivo, Echinochloa crus-galli; details: Echinochloa crus-galli; for pest or weed control at 500 g/ha: 500 g ai/ha
In short: (§1)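 Herbicidal effect was judged by eye on a 0–100 scale after plants stood 13 to 15 days in the greenhouse following pre- or postemergence treatment with surfactant-containing formulations.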

lambsquarters = assay: Test B pre-/postemergence herbicide test; type: in vivo, Chenopodium album; details: Chenopodium album, 336 h; for pest or weed control at 500 g/ha: 500 g ai/ha
In short: (§2)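 Plants compared with untreated controls 13–15 days post-treatment and given a visual 0–100 injury score. Applications: preemergence to seeds; postemergence at 1- to 4-leaf (2–18 cm); paddy species flooded, 2-leaf stage. Vehicle non-phytotoxic, surfactant included.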

Surinam grass = assay: Test B pre-/postemergence herbicide test; type: in vivo, Urochloa decumbens; details: Urochloa decumbens; for pest or weed control at 500 g/ha: 500 g ai/ha
In short: as §2

[2] = tested on: small flower umbrella sedge; assay: Test B flooded paddy test; type: in vivo, Cyperus difformis; details: Cyperus difformis, 336 h, 1000 g ai/ha, visual rating, scale 0 to 100 (0 no effect, 100 complete control), 13 to 15 days, read-out: Sedge, Umbrella plant response rating
In short: (§3)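 Treated at 2-leaf (paddy) or 1–4-leaf, 2–18 cm (postemergence); greenhouse 13–15 d; visual score vs control, 0 none to 100 complete control; dash = not tested.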

giant foxtail = assay: Test B pre-/postemergence herbicide test; type: in vivo, Setaria faberi; details: Setaria faberi, 336 h; for pest or weed control at 500 g/ha: 500 g ai/ha
In short: as §2

wild oat = assay: Test B postemergence herbicide test; type: in vivo, Avena fatua; details: Postemergence, scale 0 (no effect) to 100 (complete control)
In short: (§4)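 Formulated test chemicals went onto postemergence plants measuring 2 to 18 cm, at one to four leaves. For the paddy assay, species had reached two leaves. Scoring took place 13–15 days later by eye, relative to untreated plants, using 0 for no effect up to 100 for full control.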

ducksalad = assay: Test B flooded paddy test; type: in vivo, Heteranthera limosa; details: Heteranthera limosa, 336 h, 1000 g ai/ha, visual rating, scale 0 to 100 (0 no effect, 100 complete control), 13 to 15 days, read-out: Ducksalad plant response rating
In short: as §3

large crabgrass = assay: Test B pre-/postemergence herbicide test; type: in vivo, Digitaria sanguinalis; details: Digitaria sanguinalis; for pest or weed control at 500 g/ha: 500 g ai/ha
In short: as §2

rice = assay: Test B flooded paddy test; type: in vivo, Oryza sativa; details: Oryza sativa, 336 h, 1000 g ai/ha, visual rating, scale 0 to 100 (0 no effect, 100 complete control), 13 to 15 days, read-out: Rice plant response rating
In short: as §4

corn = assay: Test B pre-/postemergence herbicide test; type: in vivo, Zea mays; details: Zea mays
In short: as §2

morningglory = assay: Test B pre-/postemergence herbicide test; type: in vivo, Ipomoea coccinea; details: Ipomoea, 336 h; for pest or weed control at 500 g/ha: 500 g ai/ha
In short: as §1

blackgrass = assay: Test B postemergence herbicide test; type: in vivo, Alopecurus myosuroides; details: Postemergence, scale 0 (no effect) to 100 (complete control)
In short: as §3

cocklebur = assay: Test B pre-/postemergence herbicide test; type: in vivo, Xanthium strumarium; details: Xanthium strumarium; for pest or weed control at 500 g/ha: 500 g ai/ha
In short: as §1

wheat = assay: Test B postemergence herbicide test; type: in vivo, Triticum aestivum; details: Postemergence, scale 0 (no effect) to 100 (complete control)
In short: as §4

barnyardgrass [3] = assay: Test B flooded paddy test; type: in vivo, Echinochloa crus-galli; details: Echinochloa crus-galli, 336 h, 1000 g ai/ha, visual rating, scale 0 to 100 (0 no effect, 100 complete control), 13 to 15 days, read-out: Barnyardgrass plant response rating
In short: as §3

pigweed = assay: Test B pre-/postemergence herbicide test; type: in vivo, Amaranthus retroflexus; details: Amaranthus retroflexus, 336 h; for pest or weed control at 500 g/ha: 500 g ai/ha
In short: as §2

[4] = 500 g ai/ha, visual rating after 13 to 15 days

Question: `CCNC(=O)c1ccc(F)c(NC(=O)c2cc(C(C)(C)C)nn2CC)c1` [Compound 2, 3-(1,1-dimethylethyl)-1-ethyl-N-[5-[(ethylamino)carbonyl]-2-fluorophenyl]-1H-pyrazole-5-carboxamide] was tested. Which pest or weed control at 125 g/ha (barnyardgrass [1]; post-emergence, Postemergence, 125 g ai/ha, scale 0 (no effect) to 100 (complete control), read-out: Barnyardgrass plant response rating) did it give?
Answer: 30%

Question: And the pest or weed control at 500 g/ha (barnyardgrass [1]; post-emergence, Postemergence, visual rating after 13 to 15 days, scale 0 (no effect) to 100 (complete control), read-out: Plant response rating, Barnyardgrass)?
Answer: 70%

Question: What about the pest or weed control at 500 g/ha (barnyardgrass [1]; pre-emergence, Preemergence, scale 0 to 100, read-out: Barnyardgrass plant response rating) of the same compound?
Answer: 100%

Question: What about the pest or weed control at 125 g/ha (lambsquarters; post-emergence, Postemergence, 125 g ai/ha, scale 0 (no effect) to 100 (complete control), read-out: Lambsquarters plant response rating) of the same compound?
Answer: 80%

Question: What about the pest or weed control at 500 g/ha (lambsquarters; post-emergence, Postemergence, visual rating after 13 to 15 days, scale 0 (no effect) to 100 (complete control), read-out: Plant response rating, Lambsquarters) of the same compound?
Answer: 90%

Question: And the pest or weed control at 500 g/ha (lambsquarters; pre-emergence, Preemergence, scale 0 to 100, read-out: Lambsquarters plant response rating)?
Answer: 100%

Question: What about the pest or weed control at 125 g/ha (Surinam grass; post-emergence, Postemergence, 125 g ai/ha, scale 0 (no effect) to 100 (complete control), read-out: Surinam Grass plant response rating) of the same compound?
Answer: 20%

Question: What about the pest or weed control at 500 g/ha (Surinam grass; post-emergence, Postemergence, visual rating after 13 to 15 days, scale 0 (no effect) to 100 (complete control), read-out: Plant response rating, Surinam Grass) of the same compound?
Answer: 50%

Question: And the pest or weed control at 500 g/ha (Surinam grass; pre-emergence, Preemergence, scale 0 to 100, read-out: Surinam Grass plant response rating)?
Answer: 100%

Question: What about the pest or weed control at 1000 g/ha [2] of the same compound?
Answer: 90%

Question: And the pest or weed control at 125 g/ha (giant foxtail; post-emergence, Postemergence, 125 g ai/ha, scale 0 (no effect) to 100 (complete control), read-out: Foxtail, Giant plant response rating)?
Answer: 30%

Question: What about the pest or weed control at 500 g/ha (giant foxtail; post-emergence, Postemergence, visual rating after 13 to 15 days, scale 0 (no effect) to 100 (complete control), read-out: Plant response rating, Foxtail, Giant) of the same compound?
Answer: 30%

Question: What about the pest or weed control at 500 g/ha (giant foxtail; pre-emergence, Preemergence, scale 0 to 100, read-out: Foxtail, Giant plant response rating) of the same compound?
Answer: 100%

Question: And the pest or weed control at 125 g/ha (wild oat; Avena fatua, post-emergence, 336 h, 125 g ai/ha, read-out: Oat, Wild plant response rating)?
Answer: 20%

Question: What about the “Plant response rating, Oat, Wild” value (wild oat; [4]) of the same compound?
Answer: 30

Question: And the pest or weed control at 1000 g/ha (ducksalad)?
Answer: 90%

Question: What about the pest or weed control at 125 g/ha (large crabgrass; post-emergence, Postemergence, 125 g ai/ha, scale 0 (no effect) to 100 (complete control), read-out: Crabgrass, Large plant response rating) of the same compound?
Answer: 20%

Question: And the pest or weed control at 500 g/ha (large crabgrass; post-emergence, Postemergence, visual rating after 13 to 15 days, scale 0 (no effect) to 100 (complete control), read-out: Plant response rating, Crabgrass, Large)?
Answer: 30%

Question: What about the pest or weed control at 500 g/ha (large crabgrass; pre-emergence, Preemergence, scale 0 to 100, read-out: Crabgrass, Large plant response rating) of the same compound?
Answer: 100%

Question: And the plant injury at 1000 g/ha (rice)?
Answer: 70%

Question: And the plant injury at 125 g/ha (corn; post-emergence, Postemergence, 125 g ai/ha, scale 0 (no effect) to 100 (complete control), read-out: Corn plant response rating)?
Answer: 20%

Question: What about the Corn plant response rating (crop injury, 0 = no effect, 100 = complete kill) at 500 g/ha (corn; post-emergence, Postemergence, 500 g ai/ha, visual rating after 13 to 15 days, scale 0 (no effect) to 100 (complete control)) of the same compound?
Answer: 20%

Question: And the plant injury at 500 g/ha (corn; pre-emergence, Preemergence, 500 g ai/ha, scale 0 to 100, read-out: Corn plant response rating)?
Answer: 80%

Question: What about the pest or weed control at 125 g/ha (morningglory; post-emergence, Postemergence, 125 g ai/ha, scale 0 (no effect) to 100 (complete control), read-out: Morningglory plant response rating) of the same compound?
Answer: 30%

Question: And the pest or weed control at 500 g/ha (morningglory; post-emergence, Postemergence, visual rating after 13 to 15 days, scale 0 (no effect) to 100 (complete control), read-out: Plant response rating, Morningglory)?
Answer: 70%

Question: What about the pest or weed control at 500 g/ha (morningglory; pre-emergence, Preemergence, scale 0 to 100, read-out: Morningglory plant response rating) of the same compound?
Answer: 90%

Question: And the pest or weed control at 125 g/ha (blackgrass; Alopecurus myosuroides, post-emergence, 336 h, 125 g ai/ha, read-out: Blackgrass plant response rating)?
Answer: 10%

Question: And the “Plant response rating, Blackgrass” value (blackgrass; [4])?
Answer: 30

Question: And the pest or weed control at 125 g/ha (cocklebur; post-emergence, Postemergence, 125 g ai/ha, scale 0 (no effect) to 100 (complete control), read-out: Cocklebur plant response rating)?
Answer: 50%

Question: And the pest or weed control at 500 g/ha (cocklebur; post-emergence, Postemergence, visual rating after 13 to 15 days, scale 0 (no effect) to 100 (complete control), read-out: Plant response rating, Cocklebur)?
Answer: 80%

Question: And the pest or weed control at 500 g/ha (cocklebur; pre-emergence, Preemergence, scale 0 to 100, read-out: Cocklebur plant response rating)?
Answer: 90%

Question: And the “Plant response rating, Wheat” value (wheat; [4])?
Answer: 20

Question: And the plant injury at 125 g/ha (wheat; Triticum aestivum, post-emergence, 336 h, 125 g ai/ha, read-out: Wheat plant response rating)?
Answer: 20%

Question: What about the pest or weed control at 1000 g/ha (barnyardgrass [3]) of the same compound?
Answer: 90%

Question: What about the pest or weed control at 125 g/ha (pigweed; post-emergence, Postemergence, 125 g ai/ha, scale 0 (no effect) to 100 (complete control), read-out: Pigweed plant response rating) of the same compound?
Answer: 60%

Question: And the pest or weed control at 500 g/ha (pigweed; post-emergence, Postemergence, visual rating after 13 to 15 days, scale 0 (no effect) to 100 (complete control), read-out: Plant response rating, Pigweed)?
Answer: 70%

Question: And the pest or weed control at 500 g/ha (pigweed; pre-emergence, Preemergence, scale 0 to 100, read-out: Pigweed plant response rating)?
Answer: 100%
